Experimental data published in PMC5218480 (PLoS ONE, 2017).

System: MV-4-11 cells
Assay: Gene expression microarray analysis (Affymetrix PrimeView) and GSEA
Assay type: cell-based, human
Parameters: RFU PODN (11730768_x_at) / Fold change /veh PODN (11730768_x_at) / RFU LINC00158 (11744669_a_at) / Fold change /veh LINC00158 (11744669_a_at) / RFU DUSP10 (11751237_a_at) / Fold change /veh DUSP10 (11751237_a_at) / RFU ID3 (11757404_x_at) / Fold change /veh ID3 (11757404_x_at) / RFU PLEKHG5 (11737974_s_at) / Fold change /veh PLEKHG5 (11737974_s_at) / RFU LRRC4B (11730491_at) / Fold change /veh LRRC4B (11730491_at) / RFU GIMAP4 (11747438_a_at) / Fold change /veh GIMAP4 (11747438_a_at) / RFU KRT8 (11758183_x_at) / Fold change /veh KRT8 (11758183_x_at) / RFU CNN1 (11734310_a_at) / Fold change /veh CNN1 (11734310_a_at) / RFU VPS37D (11726825_at) / Fold change /veh VPS37D (11726825_at) / RFU C10orf10 (11716522_x_at) / Fold change /veh C10orf10 (11716522_x_at) / RFU KIR2DL2 /// KIR2DL4 /// KIR2DL5A /// KIR2DL5B /// KIR2DS1 /// KIR2DS2 /// KIR2DS3 /// KIR2DS4 /// KIR3DL3 /// KIR3DL3 /// KIR3DS1 (11738374_at) / Fold change /veh KIR2DL2 /// KIR2DL4 /// KIR2DL5A /// KIR2DL5B /// KIR2DS1 /// KIR2DS2 /// KIR2DS3 /// KIR2DS4 /// KIR3DL3 /// KIR3DL3 /// KIR3DS1 (11738374_at) / RFU C1QL1 (11718748_at) / Fold change /veh C1QL1 (11718748_at) / RFU TMPRSS4 (11747572_a_at) / Fold change /veh TMPRSS4 (11747572_a_at) / RFU HAMP (11756126_x_at) / Fold change /veh HAMP (11756126_x_at) / RFU RNFT2 (11725882_a_at) / Fold change /veh RNFT2 (11725882_a_at) / RFU NR4A2 (11747474_a_at) / Fold change /veh NR4A2 (11747474_a_at) / RFU ABCC12 (11746883_a_at) / Fold change /veh ABCC12 (11746883_a_at) / RFU TMEM136 (11760407_x_at) / Fold change /veh TMEM136 (11760407_x_at) / RFU CLDN22 /// WWC2 (11732394_at) / Fold change /veh CLDN22 /// WWC2 (11732394_at) / RFU HLA-DPB1 (11760878_x_at) / Fold change /veh HLA-DPB1 (11760878_x_at) / RFU SPINT1 (11716480_a_at) / Fold change /veh SPINT1 (11716480_a_at) / RFU GAP43 (11754022_s_at) / Fold change /veh GAP43 (11754022_s_at) / RFU A4GNT (11735810_at) / Fold change /veh A4GNT (11735810_at) / RFU PRB3 (11715151_x_at) / Fold change /veh PRB3 (11715151_x_at) / RFU TUBB4B (11761932_at) / Fold change /veh TUBB4B (11761932_at) / RFU CAPN14 (11732068_a_at) / Fold change /veh CAPN14 (11732068_a_at) / RFU TMCC2 (11721928_a_at) / Fold change /veh TMCC2 (11721928_a_at) / RFU IRGQ (11745062_a_at) / Fold change /veh IRGQ (11745062_a_at) / RFU FAM174B (11720279_a_at) / Fold change /veh FAM174B (11720279_a_at) / RFU TMPRSS4 (11748680_a_at) / Fold change /veh TMPRSS4 (11748680_a_at) / RFU FAM212B (11763350_a_at) / Fold change /veh FAM212B (11763350_a_at) / RFU PLEKHG5 (11743358_a_at) / Fold change /veh PLEKHG5 (11743358_a_at) / RFU ZSCAN30 (11745921_a_at) / Fold change /veh ZSCAN30 (11745921_a_at) / RFU CMKLR1 (11741424_a_at) / Fold change /veh CMKLR1 (11741424_a_at) / RFU LOC101060620 /// MAPK8IP1 (11723275_at) / Fold change /veh LOC101060620 /// MAPK8IP1 (11723275_at) / RFU SPTSSB (11747773_x_at) / Fold change /veh SPTSSB (11747773_x_at) / RFU PRSS12 (11739890_at) / Fold change /veh PRSS12 (11739890_at) / RFU BIN1 (11741810_x_at) / Fold change /veh BIN1 (11741810_x_at) / RFU WNT11 (11732464_a_at) / Fold change /veh WNT11 (11732464_a_at) / RFU C10orf10 (11716521_a_at) / Fold change /veh C10orf10 (11716521_a_at) / RFU C5orf56 (11738089_at) / Fold change /veh C5orf56 (11738089_at) / RFU CYB561 (11721691_x_at) / Fold change /veh CYB561 (11721691_x_at) / RFU ANKRD19P (11752326_a_at) / Fold change /veh ANKRD19P (11752326_a_at) / RFU OR2T12 /// OR2T33 /// OR2T8 (11738714_s_at) / Fold change /veh OR2T12 /// OR2T33 /// OR2T8 (11738714_s_at) / RFU VCAN (11748164_a_at) / Fold change /veh VCAN (11748164_a_at) / RFU JSRP1 (11732532_at) / Fold change /veh JSRP1 (11732532_at) / RFU KRTAP10-11 (11738290_x_at) / Fold change /veh KRTAP10-11 (11738290_x_at) / RFU MYO3A (11730013_a_at) / Fold change /veh MYO3A (11730013_a_at) / RFU EBF3 (11725865_a_at) / Fold change /veh EBF3 (11725865_a_at) / RFU CAMK2N1 (11719241_x_at) / Fold change /veh CAMK2N1 (11719241_x_at) / RFU C5orf56 (11738088_a_at) / Fold change /veh C5orf56 (11738088_a_at) / RFU OLFML3 (11715873_a_at) / Fold change /veh OLFML3 (11715873_a_at) / RFU LOC100653217 /// NTM (11731650_a_at) / Fold change /veh LOC100653217 /// NTM (11731650_a_at) / RFU MAPK11 (11762145_a_at) / Fold change /veh MAPK11 (11762145_a_at) / RFU FIZ1 (11724087_x_at) / Fold change /veh FIZ1 (11724087_x_at) / RFU OASL (11726364_x_at) / Fold change /veh OASL (11726364_x_at) / RFU SOX15 (11748057_x_at) / Fold change /veh SOX15 (11748057_x_at) / RFU CD79A (11719716_a_at) / Fold change /veh CD79A (11719716_a_at) / RFU HIST1H1D (11736915_at) / Fold change /veh HIST1H1D (11736915_at) / RFU CASKIN2 (11723855_a_at) / Fold change /veh CASKIN2 (11723855_a_at) / RFU LOC730098 (11760151_x_at) / Fold change /veh LOC730098 (11760151_x_at) / RFU OR4N2 (11742367_at) / Fold change /veh OR4N2 (11742367_at) / RFU PRRT2 (11749266_a_at) / Fold change /veh PRRT2 (11749266_a_at) / RFU SNX32 (11753110_a_at) / Fold change /veh SNX32 (11753110_a_at) / RFU CDHR5 (11726645_a_at) / Fold change /veh CDHR5 (11726645_a_at) / RFU RCAN1 (11760418_a_at) / Fold change /veh RCAN1 (11760418_a_at) / RFU FAM167A (11723789_a_at) / Fold change /veh FAM167A (11723789_a_at) / RFU FAM26E (11764081_at) / Fold change /veh FAM26E (11764081_at) / RFU ISYNA1 (11749810_s_at) / Fold change /veh ISYNA1 (11749810_s_at) / RFU ACY1 (11761880_at) / Fold change /veh ACY1 (11761880_at) / RFU 11764098_at / Fold change /veh 11764098_at / RFU SAMD14 (11745864_x_at) / Fold change /veh SAMD14 (11745864_x_at) / RFU NPB (11741838_a_at) / Fold change /veh NPB (11741838_a_at) / RFU TMPRSS6 (11731388_a_at) / Fold change /veh TMPRSS6 (11731388_a_at) / RFU KRTAP10-2 (11738614_at) / Fold change /veh KRTAP10-2 (11738614_at) / RFU ARHGAP8 /// PRR5-ARHGAP8 (11727945_x_at) / Fold change /veh ARHGAP8 /// PRR5-ARHGAP8 (11727945_x_at) / RFU KRTAP5-7 /// NADSYN1 (11734609_at) / Fold change /veh KRTAP5-7 /// NADSYN1 (11734609_at) / RFU RASL12 (11751679_a_at) / Fold change /veh RASL12 (11751679_a_at) / RFU CDKN2B (11736163_a_at) / Fold change /veh CDKN2B (11736163_a_at) / RFU PRF1 (11729649_at) / Fold change /veh PRF1 (11729649_at) / RFU, ZNF638 /// ZNF638-IT1 / Fold change vs veh, ZNF638 /// ZNF638-IT1 / RFU, PANK3 / Fold change vs veh, PANK3 / RFU, SH3YL1 / Fold change vs veh, SH3YL1 / RFU, ZEB2 / Fold change vs veh, ZEB2 / RFU, NRIP1 / Fold change vs veh, NRIP1 / RFU, PTTG1IP / Fold change vs veh, PTTG1IP / RFU, CAPN2 / Fold change vs veh, CAPN2 / RFU, MED14 / Fold change vs veh, MED14 / RFU, SNORA58 / Fold change vs veh, SNORA58 / RFU, C1orf63 / Fold change vs veh, C1orf63 / RFU, LRRFIP1 / Fold change vs veh, LRRFIP1 / RFU, NDUFAF7 / Fold change vs veh, NDUFAF7 / RFU, SLC12A2 / Fold change vs veh, SLC12A2 / RFU, IBTK / Fold change vs veh, IBTK / RFU, ESF1 / Fold change vs veh, ESF1 / Fold change vs veh, TMEM50B / RFU, TAOK1 / Fold change vs veh, TAOK1 / RFU, ACBD3 / Fold change vs veh, ACBD3 / RFU, TMA16 / Fold change vs veh, TMA16 / RFU, RWDD3 / Fold change vs veh, RWDD3 / RFU, BCAT1 / Fold change vs veh, BCAT1 / RFU, EDEM3 / Fold change vs veh, EDEM3 / RFU, TMEM33 / Fold change vs veh, TMEM33 / RFU, WDR75 / Fold change vs veh, WDR75 / RFU, AHCTF1 / Fold change vs veh, AHCTF1 / RFU, TFRC / Fold change vs veh, TFRC / RFU, ZDHHC17 / Fold change vs veh, ZDHHC17 / RFU, NOM1 / Fold change vs veh, NOM1 / RFU, ARL8B / Fold change vs veh, ARL8B / RFU, ZBTB11 / Fold change vs veh, ZBTB11 / RFU, TAMM41 / Fold change vs veh, TAMM41 / RFU, KIAA1704 /// LOC100996395 / Fold change vs veh, KIAA1704 /// LOC100996395 / RFU, ING1 / Fold change vs veh, ING1 / RFU, TRMT61B / Fold change vs veh, TRMT61B / RFU, FUBP3 / Fold change vs veh, FUBP3 / RFU, TP53 / Fold change vs veh, TP53 / RFU, TNKS2 / Fold change vs veh, TNKS2 / RFU, ZFP14 / Fold change vs veh, ZFP14 / RFU, ACTR2 / Fold change vs veh, ACTR2 / RFU, PPP3R1 / Fold change vs veh, PPP3R1 / RFU, PIK3R1 / Fold change vs veh, PIK3R1 / RFU, HNRNPA1 / Fold change vs veh, HNRNPA1 / RFU, RNF170 / Fold change vs veh, RNF170 / RFU, ZNF28 / Fold change vs veh, ZNF28 / RFU, RNGTT / Fold change vs veh, RNGTT / RFU, OGT / Fold change vs veh, OGT / RFU, BRD1 / Fold change vs veh, BRD1 / RFU, MARS / Fold change vs veh, MARS / RFU, ZNF655 / Fold change vs veh, ZNF655 / RFU, FAHD1 / Fold change vs veh, FAHD1 / RFU, BDP1 / Fold change vs veh, BDP1 / RFU, LRRCC1 / Fold change vs veh, LRRCC1 / RFU, ARID1A / Fold change vs veh, ARID1A / RFU, ZNF146 / Fold change vs veh, ZNF146 / RFU, ZNF330 / Fold change vs veh, ZNF330 / RFU, GPN3 / Fold change vs veh, GPN3 / RFU, C9orf123 / Fold change vs veh, C9orf123 / RFU, N4BP2L2 / Fold change vs veh, N4BP2L2 / RFU, ARFIP1 / Fold change vs veh, ARFIP1 / RFU, FAM179B / Fold change vs veh, FAM179B / RFU, BCL10 / Fold change vs veh, BCL10 / RFU, UHRF1BP1L / Fold change vs veh, UHRF1BP1L / RFU, BET1 / Fold change vs veh, BET1 / RFU, CNOT2 / Fold change vs veh, CNOT2 / RFU, ZNF268 / Fold change vs veh, ZNF268 / Fold change vs veh, ZNF507 / RFU, DGCR2 / Fold change vs veh, DGCR2 / RFU, WDSUB1 / Fold change vs veh, WDSUB1 / Fold change vs veh, HSP90B1 /// MIR3652 / RFU, ADSS / Fold change vs veh, ADSS / RFU, GK / Fold change vs veh, GK / RFU, ZNF148 / Fold change vs veh, ZNF148 / RFU, TAF9 / Fold change vs veh, TAF9 / RFU, SLC1A5 / Fold change vs veh, SLC1A5 / RFU, SLMO2 / Fold change vs veh, SLMO2 / RFU, ABCC4 / Fold change vs veh, ABCC4 / RFU, LOC101060439 /// RAP1B / Fold change vs veh, LOC101060439 /// RAP1B / RFU, RFX7 / Fold change vs veh, RFX7 / RFU, GTPBP10 / Fold change vs veh, GTPBP10 / RFU, CNEP1R1 / Fold change vs veh, CNEP1R1 / RFU, BIVM-ERCC5 /// ERCC5 / Fold change vs veh, BIVM-ERCC5 /// ERCC5 / RFU, ILF3 / Fold change vs veh, ILF3 / RFU 11762660_at / Fold change /veh 11762660_at / RFU VCAN (11757783_s_at) / Fold change /veh VCAN (11757783_s_at) / RFU DDX43 (11728927_at) / Fold change /veh DDX43 (11728927_at) / RFU KRT8 (11758188_x_at) / Fold change /veh KRT8 (11758188_x_at) / RFU NKD1 (11759106_at) / Fold change /veh NKD1 (11759106_at) / RFU SRD5A1 (11742802_a_at) / Fold change /veh SRD5A1 (11742802_a_at) / RFU TPSAB1 /// TPSB2 (11721975_s_at) / Fold change /veh TPSAB1 /// TPSB2 (11721975_s_at) / RFU GSTM3 (11746129_a_at) / Fold change /veh GSTM3 (11746129_a_at) / RFU IL23R (11737362_x_at) / Fold change /veh IL23R (11737362_x_at) / RFU TMEM51 (11727254_a_at) / Fold change /veh TMEM51 (11727254_a_at) / RFU PIWIL2 (11732686_x_at) / Fold change /veh PIWIL2 (11732686_x_at) / RFU ORM1 (11744905_x_at) / Fold change /veh ORM1 (11744905_x_at) / RFU CCDC152 (11743942_at) / Fold change /veh CCDC152 (11743942_at) / RFU ECM1 (11717891_a_at) / Fold change /veh ECM1 (11717891_a_at) / RFU IL23R (11748794_a_at) / Fold change /veh IL23R (11748794_a_at) / RFU TNFAIP8L3 (11732012_x_at) / Fold change /veh TNFAIP8L3 (11732012_x_at) / RFU MBOAT4 (11741988_at) / Fold change /veh MBOAT4 (11741988_at) / RFU 11764193_at / Fold change /veh 11764193_at / RFU TMEM53 (11763286_at) / Fold change /veh TMEM53 (11763286_at) / RFU MAGEB2 (11727129_at) / Fold change /veh MAGEB2 (11727129_at) / RFU TMEM200A (11744735_a_at) / Fold change /veh TMEM200A (11744735_a_at) / RFU CCDC152 (11751479_a_at) / Fold change /veh CCDC152 (11751479_a_at) / RFU FAM211A (11726209_a_at) / Fold change /veh FAM211A (11726209_a_at) / RFU RGS16 (11746705_a_at) / Fold change /veh RGS16 (11746705_a_at) / RFU VCAN (11755009_s_at) / Fold change /veh VCAN (11755009_s_at) / RFU RHOB (11743442_s_at) / Fold change /veh RHOB (11743442_s_at) / RFU RGS16 (11720943_a_at) / Fold change /veh RGS16 (11720943_a_at) / RFU RGS16 (11720944_at) / Fold change /veh RGS16 (11720944_at) / RFU, VPS4B / Fold change vs veh, VPS4B / RFU, CREB1 / Fold change vs veh, CREB1 / RFU, DNAJC13 / Fold change vs veh, DNAJC13 / RFU, GNAQ / Fold change vs veh, GNAQ / RFU, CDK5R1 / Fold change vs veh, CDK5R1 / RFU, ZRANB3 / Fold change vs veh, ZRANB3 / RFU, CUL4A / Fold change vs veh, CUL4A / RFU, CCNY / Fold change vs veh, CCNY / RFU, UFL1 / Fold change vs veh, UFL1 / RFU, COG3 / Fold change vs veh, COG3 / RFU, DIAPH2 / Fold change vs veh, DIAPH2 / RFU, SKA2 / Fold change vs veh, SKA2 / RFU, AFF3 / Fold change vs veh, AFF3 / RFU, LMF1 / Fold change vs veh, LMF1 / RFU, IPO11 / Fold change vs veh, IPO11 / RFU, DFFB / Fold change vs veh, DFFB / RFU, FOXP1 / Fold change vs veh, FOXP1 / RFU, CARD8 / Fold change vs veh, CARD8 / RFU, STRN3 / Fold change vs veh, STRN3 / RFU, ADK / Fold change vs veh, ADK / RFU, RASSF2 / Fold change vs veh, RASSF2 / RFU, WIPF1 / Fold change vs veh, WIPF1 / RFU, LARP1B / Fold change vs veh, LARP1B / RFU, RASA1 / Fold change vs veh, RASA1 / RFU, RB1 / Fold change vs veh, RB1 / RFU, PPFIA1 / Fold change vs veh, PPFIA1 / RFU, MAT2A / Fold change vs veh, MAT2A / RFU, CCT5 / Fold change vs veh, CCT5 / RFU, WDR92 / Fold change vs veh, WDR92 / RFU, CUX1 / Fold change vs veh, CUX1 / RFU, TTC7A / Fold change vs veh, TTC7A / RFU, TMEM135 / Fold change vs veh, TMEM135 / RFU, DEPTOR / Fold change vs veh, DEPTOR / RFU, CPM / Fold change vs veh, CPM / RFU, DNAJB6 / Fold change vs veh, DNAJB6 / RFU, CACNA2D3 / Fold change vs veh, CACNA2D3 / RFU, DTX4 / Fold change vs veh, DTX4 / RFU, TFCP2 / Fold change vs veh, TFCP2 / RFU, GMCL1 /// GMCL1P1 / Fold change vs veh, GMCL1 /// GMCL1P1 / RFU, AEBP2 / Fold change vs veh, AEBP2 / RFU, SNHG1 /// SNORD22 /// SNORD25 /// SNORD26 /// SNORD27 /// SNORD28 /// SNORD29 /// SNORD31 / Fold change vs veh, SNHG1 /// SNORD22 /// SNORD25 /// SNORD26 /// SNORD27 /// SNORD28 /// SNORD29 /// SNORD31 / Fold change (Aza/veh), C12orf56 (ProbeSet 11735607_a_at) / Fold change (ACY-1035/veh), C12orf56 (ProbeSet 11735607_a_at) / Fold change (Aza/veh), FGFR1OP (ProbeSet 11751329_s_at) / Fold change (ACY-1035/veh), FGFR1OP (ProbeSet 11751329_s_at) / Fold change (Aza/veh), VPS36 (ProbeSet 11739960_a_at) / Fold change (ACY-1035/veh), VPS36 (ProbeSet 11739960_a_at) / RFU SYPL1 (11715823_x_at) / Fold change /veh SYPL1 (11715823_x_at) / RFU IGFBP7 (11715501_s_at) / Fold change /veh IGFBP7 (11715501_s_at) / RFU REEP3 (11722064_at) / Fold change /veh REEP3 (11722064_at) / RFU IGLL1 (11728026_x_at) / Fold change /veh IGLL1 (11728026_x_at): dose or concentration left out as unconfirmed
Details: ProbeSet 11740011_at; LIST B

## Nc1ncn([C@@H]2O[C@H](CO)[C@@H](O)[C@H]2O)c(=O)n1 [azacitidine]
  Fold change vs veh, ZFP14: 0.92
